The results in this text go back to the supplement of paper PMC11208160.

The nature of the data set: recombinant barcode read abundance after kanamycin selection (control-corrected) (log10(CPM+1)); higher = more efficient recombination; sequences stand for … in AGTGCAGAGAAAATCGGCCAGTTTTCTCTGCCTGCAGTCCGCATGCCGT…AGATTTATGCAGCGGACTGCCTTTCTCCCAAAGTGATAAACCGGACAGTATCATGGACCGGTTTTCCCGGTAATCCGTATTTGCAAGGTTGGTTTCACT; site = the 11-nt target. In outline: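 Pooled E. coli screen pairing targets with IS621 bridge RNA target-binding loops. Each oligo (promoter, target, barcode, J23119-driven first 104 bridge RNA bases) was Gibson-cloned into a vector with the remaining 73 bp and T7-inducible recombinase, then co-electroporated with a donor plasmid. Two replicates each were plated on chloramphenicol/ampicillin LB agar (control) or chloramphenicol/ampicillin/kanamycin with 0.1 mM IPTG. Recombination efficiency is recombinant-junction barcode counts as CPM, averaged, control-corrected, reported as log10(CPM+1).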
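Further: IS621 recombinase and bridge RNA in Escherichia coli cells.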

On to “CAATGGTCTTGGGTTCTAACCTGTTGCTT (site CAATGGTCTAG)”, for which the “recombinant barcode read abundance (log10)” value is 1.07.
For the sequence “CAATGGTCTTGGGTTCTAACCTGTTGCTT (site CAATGGTCTAT)”, the “recombinant barcode read abundance (log10)” value amounted to 1.14.
For “CAATTTCCTTGGGTTCTAACCTGTTGCAT (site CAATTTCCTAT)”, the “recombinant barcode read abundance (log10)” value worked out at 0.322.
With “CAATTTCCTTGGGTTCTAACCTGTTGCAT (site GCCAGCTCTCA)”, the “recombinant barcode read abundance (log10)” value amounted to 0.0829.
Under “CACACGACTTGGGTTCTAACCTGTTGCTT (site CACACGACTAA)” stands 0.496; under “CACACGACTTGGGTTCTAACCTGTTGCTT (site TGGTTACCTCC)”, 0.0367; under “CACACGCCTTGGGTTCTAACCTGTTGCCT (site CACACGCCTAG)”, 0.278.
As for “CACACGCCTTGGGTTCTAACCTGTTGCCT (site CTCACGCCTAA)”, the “recombinant barcode read abundance (log10)” value was 0.0913.
On to “CACATATCTTGGGTTCTAACCTGTTGCAT (site CACATATCTAT)”, for which the “recombinant barcode read abundance (log10)” value worked out at 1.49.
With “CACATATCTTGGGTTCTAACCTGTTGCAT (site CACATCTCTAG)”, the “recombinant barcode read abundance (log10)” value was 0.123.
Turning to “CACCAATCTTGGGTTCTAACCTGTTGCCT (site CACCAATCTAG)”, the “recombinant barcode read abundance (log10)” value turned out to be 0.525.
In the case of “CACCAATCTTGGGTTCTAACCTGTTGCCT (site CACGCATCTAG)” it was 0.269.
In the case of “CACCAGCCTTGGGTTCTAACCTGTTGCAT (site AGGTCCGCTTA)” it was 0.167; in that of “CACCAGCCTTGGGTTCTAACCTGTTGCAT (site CACCAGCCTAT)”, 1.98.
Consider “CACCCCTCTTGGGTTCTAACCTGTTGCCG (site ATGAGGACTAC)”, for which the “recombinant barcode read abundance (log10)” value stood at 0.0851.
With “CACCCCTCTTGGGTTCTAACCTGTTGCCG (site CACCCCTCTCG)”, the “recombinant barcode read abundance (log10)” value worked out at 2.44.
Take “CACCGTCCTTGGGTTCTAACCTGTTGCAT (site CACCGTCCTAC)”: the “recombinant barcode read abundance (log10)” value stood at 0.0846.
In the case of “CACCGTCCTTGGGTTCTAACCTGTTGCAT (site CACCGTCCTAT)”, the “recombinant barcode read abundance (log10)” value was 1.61.
Under “CACCTGTCTTGGGTTCTAACCTGTTGCCG (site CACCTGACTCG)” stands 0.151.
In the case of “CACCTGTCTTGGGTTCTAACCTGTTGCCG (site CACCTGTCTCG)” it was 1.94.
As for “CACGCGTCTTGGGTTCTAACCTGTTGCTG (site CACGCGTCTCA)”, the “recombinant barcode read abundance (log10)” value was 0.746.
Regarding “CACGCGTCTTGGGTTCTAACCTGTTGCTG (site CACGCTTCTTA)”, the “recombinant barcode read abundance (log10)” value was 0.0288.
“CACGCTCCTTGGGTTCTAACCTGTTGCGT (site ACTTGAGCTCT)”: the “recombinant barcode read abundance (log10)” value came out at 0.119.
Consider “CACGCTCCTTGGGTTCTAACCTGTTGCGT (site CACGCTCCTAC)”, for which the “recombinant barcode read abundance (log10)” value came out at 0.656.
As to “CACGGGTCTTGGGTTCTAACCTGTTGCTT (site CACGGGTCTAA)”, the “recombinant barcode read abundance (log10)” value amounted to 2.32.
For the sequence “CACGGGTCTTGGGTTCTAACCTGTTGCTT (site CTCCGGTCTAA)”, the “recombinant barcode read abundance (log10)” value was determined as 0.209.
For the sequence “CACTACCCTTGGGTTCTAACCTGTTGCTT (site AGGCCGTCTCC)”, the “recombinant barcode read abundance (log10)” value turned out to be 0.0811.
Take “CACTACCCTTGGGTTCTAACCTGTTGCTT (site CACTACCCTAA)”: the “recombinant barcode read abundance (log10)” value was determined as 1.24.
Turning to “CACTATCCTTGGGTTCTAACCTGTTGCGG (site CACTAGCCTCC)”, the “recombinant barcode read abundance (log10)” value was determined as 0.0909.
As to “CACTATCCTTGGGTTCTAACCTGTTGCGG (site CACTATCCTCC)”, the “recombinant barcode read abundance (log10)” value worked out at 1.5.
In the case of “CACTCACCTTGGGTTCTAACCTGTTGCGG (site CACTCACCTCC)” it was 1.38.
Regarding “CACTCACCTTGGGTTCTAACCTGTTGCGG (site CACTTAGCTCC)”, the “recombinant barcode read abundance (log10)” value came to 0.0338.
As for “CACTCTCCTTGGGTTCTAACCTGTTGCCT (site CACTCTCCTAG)”, the “recombinant barcode read abundance (log10)” value came out at 0.226.
For the sequence “CACTCTCCTTGGGTTCTAACCTGTTGCCT (site CACTCTCCTAT)”, the “recombinant barcode read abundance (log10)” value stood at 0.00896.
As for “CACTTAGCTTGGGTTCTAACCTGTTGCGG (site CACTCACCTCC)”, the “recombinant barcode read abundance (log10)” value worked out at 0.0176.
Turning to “CACTTAGCTTGGGTTCTAACCTGTTGCGG (site CACTTAGCTCC)”, the “recombinant barcode read abundance (log10)” value is 1.28.
Turning to “CACTTCCCTTGGGTTCTAACCTGTTGCCT (site CACTTCCCTAA)”, the “recombinant barcode read abundance (log10)” value was 0.191.
Under “CACTTCCCTTGGGTTCTAACCTGTTGCCT (site CACTTCCCTAC)” stands 0.0709; under “CACTTCCCTTGGGTTCTAACCTGTTGCCT (site CACTTCCCTAG)”, 0.924.
In the case of “CACTTCCCTTGGGTTCTAACCTGTTGCCT (site CACTTCCCTAT)” it was 0.0298; in that of “CACTTCCCTTGGGTTCTAACCTGTTGCTT (site CACTTCCCTAA)”, 1.04; in that of “CACTTCCCTTGGGTTCTAACCTGTTGCTT (site CACTTCCCTAC)”, 0.0814.
Under “CACTTCCCTTGGGTTCTAACCTGTTGCTT (site CACTTCCCTAG)” stands 0.442; under “CACTTCCCTTGGGTTCTAACCTGTTGCTT (site CACTTCCCTAT)”, 0.443; under “CACTTGTCTTGGGTTCTAACCTGTTGCCA (site CACTTGTCTTG)”, 0.0547.
Take “CACTTGTCTTGGGTTCTAACCTGTTGCCA (site TATTTGTCTTG)”: the “recombinant barcode read abundance (log10)” value is 0.0129.
Turning to “CAGAAGTCTTGGGTTCTAACCTGTTGCTT (site ACACGTGCTTC)”, the “recombinant barcode read abundance (log10)” value is 0.0609.
For “CAGAAGTCTTGGGTTCTAACCTGTTGCTT (site CAGAAGTCTAA)”, the “recombinant barcode read abundance (log10)” value came to 1.44.
In the case of “CAGAATACTTGGGTTCTAACCTGTTGCGT (site CAAAATTCTAC)” it was 0.215.
On to “CAGAATACTTGGGTTCTAACCTGTTGCGT (site CAGAATACTAC)”, for which the “recombinant barcode read abundance (log10)” value amounted to 2.24.
“CAGAGAGCTTGGGTTCTAACCTGTTGCCT (site CAGAGAGCTAG)”: the “recombinant barcode read abundance (log10)” value is 1.2.
Under “CAGAGAGCTTGGGTTCTAACCTGTTGCCT (site CCGAGAGCTAG)” stands 0.0663.
Under “CAGAGAGCTTGGGTTCTAACCTGTTGCCT (site CGGAGAGCTAG)” stands 0.0978.
In the case of “CAGAGAGCTTGGGTTCTAACCTGTTGCCT (site CTGAGAGCTAG)” it was 0.132; in that of “CAGAGCTCTTGGGTTCTAACCTGTTGCCT (site CAGAGCTCTAG)”, 1.43.
With “CAGAGCTCTTGGGTTCTAACCTGTTGCCT (site CAGAGGTCTAG)”, the “recombinant barcode read abundance (log10)” value was found to be 0.309.
In the case of “CAGAGTCCTTGGGTTCTAACCTGTTGCCT (site CAGAGTCCTAG)” it was 1.26; in that of “CAGAGTCCTTGGGTTCTAACCTGTTGCCT (site CAGAGTCCTAT)”, 0.3; in that of “CAGATCCCTTGGGTTCTAACCTGTTGCCT (site CAGATCCCTAG)”, 1.91.
In the case of “CAGATCCCTTGGGTTCTAACCTGTTGCCT (site CCGATCCCTAG)” it was 0.0889; in that of “CAGATCCCTTGGGTTCTAACCTGTTGCCT (site CGGATCCCTAG)”, 0.0247; in that of “CAGATCCCTTGGGTTCTAACCTGTTGCCT (site CTGATCCCTAG)”, 0.0156.
In the case of “CAGATGACTTGGGTTCTAACCTGTTGCCT (site CAAATTACTAG)” it was 0.393; in that of “CAGATGACTTGGGTTCTAACCTGTTGCCT (site CAGATGACTAG)”, 1.52; in that of “CAGCCGTCTTGGGTTCTAACCTGTTGCGG (site CAATCGTCTCC)”, 0.0473.
“CAGCCGTCTTGGGTTCTAACCTGTTGCGG (site CAGCCGTCTCC)”: the “recombinant barcode read abundance (log10)” value was determined as 1.09.
Turning to “CAGCGAGCTTGGGTTCTAACCTGTTGCCG (site CAACGAGCTCG)”, the “recombinant barcode read abundance (log10)” value was found to be 0.21.
Regarding “CAGCGAGCTTGGGTTCTAACCTGTTGCCG (site CACCGAGCTCG)”, the “recombinant barcode read abundance (log10)” value turned out to be 0.117.
On to “CAGCGAGCTTGGGTTCTAACCTGTTGCCG (site CAGCGAGCTCG)”, for which the “recombinant barcode read abundance (log10)” value stood at 0.737.
Turning to “CAGCGAGCTTGGGTTCTAACCTGTTGCCG (site CATCGAGCTCG)”, the “recombinant barcode read abundance (log10)” value amounted to 0.0483.
For “CAGGAGACTTGGGTTCTAACCTGTTGCCT (site CAGGAGACTAG)”, the “recombinant barcode read abundance (log10)” value was 1.63.
For “CAGGAGACTTGGGTTCTAACCTGTTGCCT (site TAGGAGACTGG)”, the “recombinant barcode read abundance (log10)” value was determined as 0.0578.
Regarding “CAGGCGACTTGGGTTCTAACCTGTTGCCT (site CAGGCGACTAG)”, the “recombinant barcode read abundance (log10)” value was 0.0758.
Under “CAGGCGACTTGGGTTCTAACCTGTTGCCT (site CAGGCGCCTAG)” stands 0.556; under “CAGGCGACTTGGGTTCTAACCTGTTGCCT (site CAGGCGGCTAG)”, 0.
As to “CAGGCGACTTGGGTTCTAACCTGTTGCCT (site CAGGCGTCTAG)”, the “recombinant barcode read abundance (log10)” value is 0.394.
On to “CAGGGGACTTGGGTTCTAACCTGTTGCAC (site CAGGGGACTGT)”, for which the “recombinant barcode read abundance (log10)” value amounted to 2.38.
